Source: US20240382471A1, “GLUCAGON-LIKE PEPTIDE-1 RECEPTOR MODULATORS AND USES THEREOF” (HEPAGENE THERAPEUTICS (HK) LIMITED, priority 2021, published 2024)

Target: GLP1R (Homo sapiens, UniProt P43220)
Assay: GLP1R/CRE-Luc luciferase reporter gene assay (agonist activity)
Type: cell-based
Parameters: host or cells: HKE293 (so in the source)
Conditions: HKE293-Human GLP1R/CRE-luc cells, 5 h at 37° C., read-out: EC50 (nM) Assay 2
Protocol: GLP1R-mediated agonist activity was determined with a cell-based functional assay utilizing a britelite plus luciferase reporter gene assay system. The stable cell line overexpress GLP1R and target response element. The stimulation with GLP1R agonist results in the upregulation of intracellular cAMP, which regulate the activities of cAMP-response element binding protein (CREB) and CREB-Luc. Reagents and equipment used in the assay are listed below, followed by the protocol.
• 1) Cell Line: HKE293-Human GLP1R/CRE-luc • 2) Complete Medium: DMEM+10% FBS+1×Penicillin-Streptomycin+400 μg/mL G418
• a) Seed HKE293-Human GLP1R/CRE-luc cells at 20,000 cells/well into 384 well assay plate (6007680-50, PE) using complete medium and incubate overnight. • b) Prepare 6×compound working solution with Medium. • c) Add 5 μL 6×compound working solution into cell plate, incubate 5 h at 37° C. • d) Add 20 μl britelite plus Luciferase Assay Reagent into each well of 384-well assay plate. • e) Record the luminescence value on Envision plate reader.
• 3.1% Activity is calculated as follow:
% Activity=(Signalcmpd−SignalAve_VC)/(SignalAve_PC−SignalAve_VC)×100. • 3.2 Calculate EC50 and Plot effect-dose curve of cmpds:
Y=Bottom+(Top−Bottom)/(1+10^((Log EC50−X)*HillSlope)) • X: log of agonist concentration; Y: % Activity.

Sequence of GLP1R (P43220 24-463): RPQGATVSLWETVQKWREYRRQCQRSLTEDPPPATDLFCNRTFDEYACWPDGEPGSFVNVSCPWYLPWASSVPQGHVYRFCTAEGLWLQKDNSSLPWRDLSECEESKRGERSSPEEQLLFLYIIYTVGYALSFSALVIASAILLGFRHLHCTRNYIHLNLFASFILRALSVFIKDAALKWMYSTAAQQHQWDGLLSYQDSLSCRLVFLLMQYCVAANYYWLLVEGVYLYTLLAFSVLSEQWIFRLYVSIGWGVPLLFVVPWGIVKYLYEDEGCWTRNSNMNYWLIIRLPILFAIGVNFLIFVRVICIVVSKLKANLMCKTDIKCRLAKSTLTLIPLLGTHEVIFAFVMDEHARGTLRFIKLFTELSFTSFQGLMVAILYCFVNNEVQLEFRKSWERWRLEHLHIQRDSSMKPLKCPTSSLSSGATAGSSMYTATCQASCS

Row | EC50 [nM] | Compound
1 | 6.5 | COc1cc(C#N)ccc1COc1ccnc(C23CCN(Cc4nc5c(OC(C)C)cc(C(=O)O)cc5n4C[C@@H]4CCO4)CC2C3)n1 (stereo partly drawn) [Compound 1-42, 2-((6-(4-((4-cyano-2-methoxybenzyl)oxy)pyrimidin-2-yl)-3-azabicyclo[4.1.0]heptan-3-yl)methyl)-4-isopropoxy-1-(((S)-oxetan-2-yl)methyl)-1H-benzo[d]imidazole-6-carboxylic acid]
2 | 0.49 | [2H]C([2H])([2H])Oc1cc(C(=O)O)cc2c1nc(CN1CCC3(c4cccc(OCc5ccc(C#N)cc5OC)n4)CC3C1)n2C[C@@H]1CCO1 (stereo partly drawn) [Compound 1-32, 2-((6-(6-((4-cyano-2-methoxybenzyl)oxy)pyridin-2-yl)-3-azabicyclo[4.1.0]heptan-3-yl)methyl)-4-(methoxy-d3)-1-(((S)-oxetan-2-yl)methyl)-1H-benzo[d]imidazole-6-carboxylic acid]
3 | 0.28 | COc1cc(C#N)ccc1COc1ccnc(C23CCN(Cc4nc5c(OC)cc(C(=O)O)cc5n4C[C@@H]4CCO4)CC2C3)n1 (single isomer, unassigned) [Compound 1-38-B]
4 | 497 | COc1ccc(COc2cccc(C34CCN(Cc5nc6ccc(C(=O)O)cc6n5C[C@@H]5CCO5)CC3C4)n2)c(F)c1 (stereo partly drawn) [Compound 1-37, 2-((6-(6-((2-fluoro-4-methoxybenzyl)oxy)pyridin-2-yl)-3-azabicyclo[4.1.0]heptan-3-yl)methyl)-1-(((S)-oxetan-2-yl)methyl)-1H-benzo[d]imidazole-6-carboxylic acid]
5 | 24.8 | COc1cc(Br)ccc1COc1cccc(C23CCN(Cc4nc5ccc(C(=O)O)cc5n4C[C@@H]4CCO4)CC2C3)n1 (stereo partly drawn) [Compound 1-16, 2-((6-(6-((4-bromo-2-methoxybenzyl)oxy)pyridin-2-yl)-3-azabicyclo[4.1.0]heptan-3-yl)methyl)-1-(((S)-oxetan-2-yl)methyl)-1H-benzo[d]imidazole-6-carboxylic acid]
6 | 39.1 | COc1cc(C#N)ccc1COc1cncc(C23CCN(Cc4nc5ccc(C(=O)O)cc5n4C[C@@H]4CCO4)CC2C3)n1 (stereo partly drawn) [Compound 1-21, 2-((6-(6-((4-cyano-2-methoxybenzyl)oxy)pyrazin-2-yl)-3-azabicyclo[4.1.0]heptan-3-yl)methyl)-1-(((S)-oxetan-2-yl)methyl)-1H-benzo[d]imidazole-6-carboxylic acid]
7 | 102 | COc1cc(C#N)ccc1COc1ccnc(C23CCN(Cc4nc5ccc(C(=O)O)cc5n4C[C@@H]4CCO4)CC2C3)n1 (single isomer, unassigned) [Compound 1-26-A]
8 | 7.54 | COc1cc(C#N)ccc1COc1ccnc(C23CCN(Cc4nc5ccc(C(=O)O)cc5n4C[C@@H]4CCO4)CC2C3)n1 (single isomer, unassigned) [Compound 1-26-B]
9 | 168 | COc1c(COc2cccc(C34CCN(Cc5nc6ccc(C(=O)O)cc6n5C[C@@H]5CCO5)CC3C4)n2)ccc(C#N)c1F (stereo partly drawn) [Compound 1-29, 2-((6-(6-((4-cyano-3-fluoro-2-methoxybenzyl)oxy)pyridin-2-yl)-3-azabicyclo[4.1.0]heptan-3-yl)methyl)-1-(((S)-oxetan-2-yl)methyl)-1H-benzo[d]imidazole-6-carboxylic acid]
10 | 16 | COc1cc(C#N)ccc1COc1ccnc(C23CCN(Cc4nc5c(OC)cc(C(=O)O)cc5n4C[C@@H]4CCO4)CC2C3)n1 (single isomer, unassigned) [Compound 1-38-A]
11 | 0.95 | COc1cc(C#N)ccc1COc1cccc(C23CCN(Cc4nc5c(Cl)cc(C(=O)O)cc5n4C[C@@H]4CCO4)CC2C3)n1 (stereo partly drawn) [Compound 1-25, 4-chloro-2-((6-(6-((4-cyano-2-methoxybenzyl)oxy)pyridin-2-yl)-3-azabicyclo[4.1.0]heptan-3-yl)methyl)-1-(((S)-oxetan-2-yl)methyl)-1H-benzo[d]imidazole-6-carboxylic acid]
